The record followed here is article PMC12494099, “Discovery and Characterization of Novel IKZF1/3 Glue Degraders against Multiple Hematological Cancer Cell Lines” (Oncology Research, 2025).

Structures are written as SMILES.

Format in all cases: cell-based
The test system of experiment [1] is TMD8. Description: Cell viability (CCK-8) assay. Particulars: Homo sapiens, TMD8, 96 h, read-out: IC50 (μM) TMD8. On the procedure: (§1) The plated at a density of 15,000 cells per well, and each well contained 100 µL of medium. Subsequently, different compounds (MGD-AX, MGD-BX, MGD-CX) were added to each well. […] To evaluate the antiproliferative effects of these compounds, the Cell Counting Kit-8 (CCK-8, #CX007, Epizyme, Shanghai, China) was used. All procedures were carried out in strict accordance with the manufacturer’s instructions (Dojindo Laboratories, Mamoto Ken, Japan).

Experiment [2] relates to U937. Description: Cell viability (CCK-8) assay. The conditions noted are these: Homo sapiens, U-937, 96 h, read-out: IC50 (μM) U937. On the procedure: as §1
Experiment [3] has as its system RPMI-8226. The experiment can be described thus: Cell viability (CCK-8) assay. The conditions noted are these: Homo sapiens, RPMI-8226, 96 h, read-out: IC50 (μM) RPMI-8226. On the procedure:
as §1

For experiment [4], the system named is MV-4-11. Description: Cell viability (CCK-8) assay. The conditions noted are these: Homo sapiens, MV4-11; 96 h, CCK-8. The procedure:
as §1

The test system of experiment [5] is Skm-1. Description: Cell viability (CCK-8) assay. Particulars: Homo sapiens, SKM-1, 96 h, read-out: IC50 (μM) Skm-1. The procedure: as §1
The subject of experiment [6] is OPM-2. Description: Cell viability (CCK-8) assay. Particulars: Homo sapiens, OPM-2, 96 h, read-out: IC50 (μM) OPM-2. On the procedure:
as §1

Experiment [7] concerns MUTZ-1. The experiment can be described thus: Cell viability (CCK-8) assay. Particulars: 96 h, read-out: IC50 (μM) MUTZ-1. On the procedure: as §1
The subject of experiment [8] is SU-DHL-4. The experiment can be described thus: Cell viability (CCK-8) assay. Particulars: Homo sapiens, SU-DHL-4, 96 h, read-out: IC50 (μM) SU-DHL-4. The procedure:
as §1

For experiment [9], the system named is MOLM-13. The experiment can be described thus: Cell viability (CCK-8) assay. The conditions noted are these: Homo sapiens, MOLM-13, 96 h, read-out: IC50 (μM) MOLM-13. On the procedure: as §1
Experiment [10] deals with U2932. The experiment can be described thus: Cell viability (CCK-8) assay. The conditions noted are these: Homo sapiens, U2932, 96 h, read-out: IC50 (μM) U2932. The procedure:
as §1

In experiment [11] the test system is WSU-DLCL-2. Description: Cell viability (CCK-8) assay. The conditions noted are these: Homo sapiens, WSUDLCL2, 96 h, read-out: IC50 (μM) WSU-DLCL-2. The procedure: as §1
Experiment [12] concerns KG-1. Description: Cell viability (CCK-8) assay. The conditions noted are these: Homo sapiens, KG-1, 96 h, read-out: IC50 (μM) KG-1. The procedure:
as §1

The test system of experiment [13] is Ocl-Ly3. The experiment can be described thus: Cell viability (CCK-8) assay. Particulars: 96 h, CCK-8. The procedure:
as §1

In experiment [14] the test system is NCI-H929. Description: Cell viability (CCK-8) assay. Particulars: Homo sapiens, NCI-H929, 96 h. On the procedure: as §1
The target in experiment [15] is T1, IKZF1-HiBiT (Homo sapiens, UniProt Q13422+Q96SW2).
T1 construct: expressed in transfected cells; host or cells: HEK293T
T1 sequence (Q13422 whole entry): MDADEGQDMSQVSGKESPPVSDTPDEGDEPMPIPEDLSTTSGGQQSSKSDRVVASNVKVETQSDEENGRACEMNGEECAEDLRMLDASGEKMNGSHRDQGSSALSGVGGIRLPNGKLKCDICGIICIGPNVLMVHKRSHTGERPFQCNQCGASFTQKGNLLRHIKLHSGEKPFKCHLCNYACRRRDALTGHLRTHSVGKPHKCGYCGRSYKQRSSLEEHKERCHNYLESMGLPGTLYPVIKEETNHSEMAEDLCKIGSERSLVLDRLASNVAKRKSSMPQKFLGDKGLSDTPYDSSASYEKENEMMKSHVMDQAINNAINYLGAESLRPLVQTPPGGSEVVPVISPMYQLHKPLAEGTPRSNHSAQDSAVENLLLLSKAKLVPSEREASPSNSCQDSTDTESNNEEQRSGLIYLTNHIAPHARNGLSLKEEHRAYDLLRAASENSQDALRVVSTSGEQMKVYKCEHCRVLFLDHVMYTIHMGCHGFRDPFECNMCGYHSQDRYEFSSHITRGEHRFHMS
T1 sequence (Q96SW2 whole entry): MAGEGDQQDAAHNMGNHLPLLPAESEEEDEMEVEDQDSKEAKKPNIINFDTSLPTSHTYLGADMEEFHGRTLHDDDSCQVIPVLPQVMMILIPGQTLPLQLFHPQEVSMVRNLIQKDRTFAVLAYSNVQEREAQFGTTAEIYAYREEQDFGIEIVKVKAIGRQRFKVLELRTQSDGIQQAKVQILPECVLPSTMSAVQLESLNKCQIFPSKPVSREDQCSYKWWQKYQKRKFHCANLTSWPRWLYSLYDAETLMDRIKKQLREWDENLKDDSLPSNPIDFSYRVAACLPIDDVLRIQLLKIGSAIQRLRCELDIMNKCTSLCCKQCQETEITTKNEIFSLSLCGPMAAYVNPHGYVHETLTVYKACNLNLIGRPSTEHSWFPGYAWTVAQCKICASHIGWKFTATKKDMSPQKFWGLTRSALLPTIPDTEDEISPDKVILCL
T1 sequence (Q16531 whole entry partner): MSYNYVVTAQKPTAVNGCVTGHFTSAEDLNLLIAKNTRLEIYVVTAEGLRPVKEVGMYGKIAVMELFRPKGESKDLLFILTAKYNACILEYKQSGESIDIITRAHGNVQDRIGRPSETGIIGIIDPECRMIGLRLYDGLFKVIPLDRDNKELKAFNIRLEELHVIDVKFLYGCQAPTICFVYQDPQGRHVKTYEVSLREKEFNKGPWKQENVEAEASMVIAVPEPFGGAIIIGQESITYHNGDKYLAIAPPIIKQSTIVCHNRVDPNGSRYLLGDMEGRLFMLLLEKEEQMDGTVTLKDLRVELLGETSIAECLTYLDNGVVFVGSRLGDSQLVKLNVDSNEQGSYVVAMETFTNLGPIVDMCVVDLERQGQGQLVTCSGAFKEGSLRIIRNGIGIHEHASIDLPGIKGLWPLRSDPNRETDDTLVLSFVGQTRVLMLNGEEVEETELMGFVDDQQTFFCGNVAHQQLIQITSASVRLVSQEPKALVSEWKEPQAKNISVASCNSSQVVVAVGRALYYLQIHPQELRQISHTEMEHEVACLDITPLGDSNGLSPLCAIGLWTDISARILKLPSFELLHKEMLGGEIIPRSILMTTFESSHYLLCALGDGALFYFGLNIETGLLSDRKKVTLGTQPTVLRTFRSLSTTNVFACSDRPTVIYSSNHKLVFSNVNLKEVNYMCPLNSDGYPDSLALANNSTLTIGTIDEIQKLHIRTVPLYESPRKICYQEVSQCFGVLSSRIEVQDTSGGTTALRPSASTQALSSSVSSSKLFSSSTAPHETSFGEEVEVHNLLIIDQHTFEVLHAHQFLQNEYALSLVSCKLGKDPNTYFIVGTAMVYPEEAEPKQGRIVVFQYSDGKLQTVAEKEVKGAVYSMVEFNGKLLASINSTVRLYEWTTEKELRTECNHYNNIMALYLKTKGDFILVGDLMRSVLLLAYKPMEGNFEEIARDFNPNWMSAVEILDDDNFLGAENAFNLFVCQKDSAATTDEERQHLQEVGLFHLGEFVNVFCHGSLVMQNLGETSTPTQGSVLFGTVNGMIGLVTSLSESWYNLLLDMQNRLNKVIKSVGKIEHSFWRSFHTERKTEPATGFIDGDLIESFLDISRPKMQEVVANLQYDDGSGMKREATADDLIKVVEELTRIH
The experiment can be described thus: Quantitative degradation assay using the HiBiT system (HEK293T). The conditions noted are these: HEK-293T; HEK293T IKZF1-HiBiT, 24 h; read-out: maximal degradation (Dmax) on IKZF1. On the procedure: (§2) An in vitro quantitative degradation assay utilizing the HiBiT system was carried out as previously described. To evaluate the degradation of IKZF1, IKZF2, and IKZF3 proteins, HEK293T cell lines stably expressing IKZF1-, IKZF2-, IKZF3-, GSPT1- or CK1α-HiBiT were cultured in 96-well plates at 12,000 cells per well. […] After the treatment, cell lysis was carried out using the Nano-Glo HiBiT Lytic Detection System (#N3040, Promega). All lysis operations were strictly carried out according to the manufacturer’s specific protocol. Then, the SpectraMax iD3 instrument (Molecular Devices, San Jose, CA, USA) was used to detect the luminescent signals released by the HiBiT-tagged neosubstrates.
For orientation: With HiBiT, luminescence reflects the tagged protein that the partner subunit can reach.

The target in experiment [16] is T2, IKZF3-HiBiT (Homo sapiens, UniProt Q96SW2+Q9UKT9).
T2 construct: expressed in transfected cells; host or cells: HEK293T
T2 sequence (Q9UKT9 whole entry): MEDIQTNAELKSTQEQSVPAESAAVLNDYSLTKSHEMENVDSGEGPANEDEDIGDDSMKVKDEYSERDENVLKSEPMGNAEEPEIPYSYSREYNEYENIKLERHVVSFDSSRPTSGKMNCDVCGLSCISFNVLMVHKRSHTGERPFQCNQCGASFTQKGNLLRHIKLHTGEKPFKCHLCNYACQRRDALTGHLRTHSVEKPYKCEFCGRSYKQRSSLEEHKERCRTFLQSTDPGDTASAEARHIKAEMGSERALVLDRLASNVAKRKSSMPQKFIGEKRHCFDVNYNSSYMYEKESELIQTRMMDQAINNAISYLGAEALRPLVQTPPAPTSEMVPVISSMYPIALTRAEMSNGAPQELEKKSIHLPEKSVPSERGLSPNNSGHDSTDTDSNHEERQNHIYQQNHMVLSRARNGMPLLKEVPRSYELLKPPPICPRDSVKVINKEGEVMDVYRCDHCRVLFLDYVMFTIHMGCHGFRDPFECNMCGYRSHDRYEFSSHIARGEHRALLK
T2 sequence (Q96SW2 whole entry): as the sequence (Q96SW2 whole entry) above
T2 sequence (Q16531 whole entry partner): as the sequence (Q16531 whole entry partner) above
The experiment is described as above. Particulars: HEK-293T; HEK293T IKZF3-HiBiT, 24 h; read-out: maximal degradation (Dmax) on IKZF3. The procedure:
as §2

In experiment [17] the test system is MV-4-11. Description: Cell apoptosis assay (Annexin V flow cytometry). The conditions noted are these: MV-4-11, 10 µM. The procedure:
(§3) Cells (NCI-H929 and MV-4-11) were seeded at a density of 1 × 10^6 cells per well into 6-well dishes. […] Apoptosis was assessed using an Annexin V-FITC kit (#ab14085; Abcam, MA, USA) on a FACS Calibur Flow Cytometer (Becton Dickinson, Franklin Lakes, NJ, USA). For cell cycle analysis, cells were fixed in 75% ethanol (−20°C/overnight), washed with PBS (pH = 7.2–7.4, 1×), treated with RNase A (0.2 mg/mL, 37°C/30 min), stained with PI (10 μg/mL), and analyzed on the same instrument. Finally, the samples were analyzed using a FACS Calibur Flow Cytometer.
For orientation: A flow cytometer gives signals particle by particle.

Experiment [18] deals with control vector NCI-H929 cells. The experiment can be described thus: Cell apoptosis assay, control vector cells. The procedure:
[…] NCI-H929 and MV-4-11 cells were seeded at a density of 1 × 10^6 cells/well in 6-well tissue culture-treated plates. According to the manufacturer’s protocol (Santa Cruz Biotechnology, Inc, Dallas, TX, USA), CRBN CRISPR/Cas9 knockout Plasmid (#sc-412142), CRBN HDR plasmid (#sc-412142-HDR), UltraCruz® Transfection Reagent (#sc-395739) were pre-mixed in Plasmid Transfection Medium (#sc-108062) at a 1:1:2 mass ratio, and cells were transiently transfected in a 37°C, 5% CO2 incubator. After 72 h of infection, the medium was replaced with complete medium containing 3 μg/mL puromycin for 5–7 days. On day 7, GFP-positive cells were sorted as single cells into 96-well plates. Isolated single-cell clones were screened via western blot analysis, using wild-type NCI-H929 or MV-4-11 cells as positive controls.
as §3

The IC50 is the midpoint of a concentration-inhibition curve. By Dmax is commonly meant the largest share of the target that was removed. For `Nc1cccc2c1C(=O)N(C1CCC(=O)NC1=O)C2=O` (stereo not drawn) [Pomalidomide, reference compound], the IC50 was found to be 15.3 µM in experiment [1]; 13.8 µM in experiment [2]; 5.21 µM in experiment [3]; 16.1 ± 1.54 µM in experiment [4]; 20.1 µM in experiment [5]; 0.204 µM in experiment [6]. The concentration for half-maximal inhibition (IC50) in experiment [7] was found to be 17.3 µM; in experiment [8], 22.4 µM; in experiment [9], 12.4 µM; in [10] it was 13.7 µM; in experiment [11], 18.1 µM; in experiment [12], 17.2 µM. Also, the IC50 stood at 18.3 ± 1.74 µM in experiment [13] and 2.18 ± 0.21 µM in experiment [14]. The greatest degradation seen (Dmax) in [15] worked out at 76.2%; in experiment [16], 69.4%. In addition, the apoptosis rate in experiment [17] is on record as 15.5%. Further, the “apoptosis (in words)” value in experiment [18] is listed as “induced significant apoptosis”.
